One assay deals with LNCaP cells. The assay can be described thus: LNCaP cell viability assay (CellTiter-Glo). The conditions noted are these: Homo sapiens, 72 h; LNCaP prostate cancer cell viability inhibition, 3 days, CellTiter-Glo (Table 2). The format is cell-based. The method, then:
LNCaP cells seeded in 96-well plates were treated with 10 μM GNE-781 or selected bivalent compounds, i.e. P-001, P-002, and P-019, following a 12-point 3-fold serial dilution. Three days after treatment, cell viability was determined using the CellTiter-Glo kit (Promega) following manufacturer's instructions. Cell viability was normalized to the mean values of 3 replicates of untreated cells. Dose-dependent response was analyzed following the least-squares non-linear regression method using the GraphPad Prism 5.0 software.
LNCaP cells were treated with GNE-781 or selected bivalent compounds for 3 days at indicated concentrations following a 3-fold serial dilution.
Cells were seeded at a density of 5000 cells per well in 96-well assay plates and treated with test compounds following a 12-point 3-fold serial dilution. Three days later, cell viability was determined using the CellTiter-Glo assay kit according to the manufacturer's instructions. The dose-response curves were determined and IC50 values were calculated using the GraphPad Prism software following a nonlinear regression (least squares fit) method.

A further assay has as its target P300 (Homo sapiens, UniProt Q09472). The assay can be described thus: Immunoblotting of P300 protein levels in LNCaP or 22RV1 cells. The format is cell-based. On the set-up: LNCaP or 22RV1 cells that express CBP/P300 proteins were treated with GNE-781 or the bivalent compounds; endogenous in cells; host or cells: LNCaP (clone FGC) or 22RV1 cells. As to conditions: percentage of inhibition of p300 at 10 nM (Table 2); read-out: Degradation (10 nM). The method, then:
Specific exemplary bivalent compounds were characterized in LNCaP or 22RV1 cells. LNCaP or 22RV1 cells that express CBP/P300 proteins were treated with GNE-781 or the bivalent compounds disclosed herein (P-001 to P-174) for indicated hours. Cells were collected, lysed and subject to immunoblotting using an antibody specific to P300 or CBP proteins. Tubulin or vinculin was included as the loading control. DMSO was used as the negative control.
Cultured cells or tissue chunks were washed with cold PBS once and lysed in cold RIPA buffer supplemented with protease inhibitors and phosphatase inhibitors (Beyotime Biotechnology). The solutions were then incubated at 4° C. for 30 minutes with gentle agitation to fully lyse cells. Cell lysates were centrifuged at 13,000 rpm for 10 minutes at 4° C. and pellets were discarded. Total protein concentrations in the lysates were determined by BCA assays (Beyotime Biotechnology). Cell lysates were mixed with Laemmli loading buffer to 1× and heated at 99° C. for 5 min. Proteins were resolved on SDS-PAGE and visualized by chemiluminescence. Images were taken by a ChemiDoc MP Imaging system (Bio-Rad). Protein bands were quantitated using the accompanied software provided by Bio-Rad.

P300, sequence (Q09472 whole entry): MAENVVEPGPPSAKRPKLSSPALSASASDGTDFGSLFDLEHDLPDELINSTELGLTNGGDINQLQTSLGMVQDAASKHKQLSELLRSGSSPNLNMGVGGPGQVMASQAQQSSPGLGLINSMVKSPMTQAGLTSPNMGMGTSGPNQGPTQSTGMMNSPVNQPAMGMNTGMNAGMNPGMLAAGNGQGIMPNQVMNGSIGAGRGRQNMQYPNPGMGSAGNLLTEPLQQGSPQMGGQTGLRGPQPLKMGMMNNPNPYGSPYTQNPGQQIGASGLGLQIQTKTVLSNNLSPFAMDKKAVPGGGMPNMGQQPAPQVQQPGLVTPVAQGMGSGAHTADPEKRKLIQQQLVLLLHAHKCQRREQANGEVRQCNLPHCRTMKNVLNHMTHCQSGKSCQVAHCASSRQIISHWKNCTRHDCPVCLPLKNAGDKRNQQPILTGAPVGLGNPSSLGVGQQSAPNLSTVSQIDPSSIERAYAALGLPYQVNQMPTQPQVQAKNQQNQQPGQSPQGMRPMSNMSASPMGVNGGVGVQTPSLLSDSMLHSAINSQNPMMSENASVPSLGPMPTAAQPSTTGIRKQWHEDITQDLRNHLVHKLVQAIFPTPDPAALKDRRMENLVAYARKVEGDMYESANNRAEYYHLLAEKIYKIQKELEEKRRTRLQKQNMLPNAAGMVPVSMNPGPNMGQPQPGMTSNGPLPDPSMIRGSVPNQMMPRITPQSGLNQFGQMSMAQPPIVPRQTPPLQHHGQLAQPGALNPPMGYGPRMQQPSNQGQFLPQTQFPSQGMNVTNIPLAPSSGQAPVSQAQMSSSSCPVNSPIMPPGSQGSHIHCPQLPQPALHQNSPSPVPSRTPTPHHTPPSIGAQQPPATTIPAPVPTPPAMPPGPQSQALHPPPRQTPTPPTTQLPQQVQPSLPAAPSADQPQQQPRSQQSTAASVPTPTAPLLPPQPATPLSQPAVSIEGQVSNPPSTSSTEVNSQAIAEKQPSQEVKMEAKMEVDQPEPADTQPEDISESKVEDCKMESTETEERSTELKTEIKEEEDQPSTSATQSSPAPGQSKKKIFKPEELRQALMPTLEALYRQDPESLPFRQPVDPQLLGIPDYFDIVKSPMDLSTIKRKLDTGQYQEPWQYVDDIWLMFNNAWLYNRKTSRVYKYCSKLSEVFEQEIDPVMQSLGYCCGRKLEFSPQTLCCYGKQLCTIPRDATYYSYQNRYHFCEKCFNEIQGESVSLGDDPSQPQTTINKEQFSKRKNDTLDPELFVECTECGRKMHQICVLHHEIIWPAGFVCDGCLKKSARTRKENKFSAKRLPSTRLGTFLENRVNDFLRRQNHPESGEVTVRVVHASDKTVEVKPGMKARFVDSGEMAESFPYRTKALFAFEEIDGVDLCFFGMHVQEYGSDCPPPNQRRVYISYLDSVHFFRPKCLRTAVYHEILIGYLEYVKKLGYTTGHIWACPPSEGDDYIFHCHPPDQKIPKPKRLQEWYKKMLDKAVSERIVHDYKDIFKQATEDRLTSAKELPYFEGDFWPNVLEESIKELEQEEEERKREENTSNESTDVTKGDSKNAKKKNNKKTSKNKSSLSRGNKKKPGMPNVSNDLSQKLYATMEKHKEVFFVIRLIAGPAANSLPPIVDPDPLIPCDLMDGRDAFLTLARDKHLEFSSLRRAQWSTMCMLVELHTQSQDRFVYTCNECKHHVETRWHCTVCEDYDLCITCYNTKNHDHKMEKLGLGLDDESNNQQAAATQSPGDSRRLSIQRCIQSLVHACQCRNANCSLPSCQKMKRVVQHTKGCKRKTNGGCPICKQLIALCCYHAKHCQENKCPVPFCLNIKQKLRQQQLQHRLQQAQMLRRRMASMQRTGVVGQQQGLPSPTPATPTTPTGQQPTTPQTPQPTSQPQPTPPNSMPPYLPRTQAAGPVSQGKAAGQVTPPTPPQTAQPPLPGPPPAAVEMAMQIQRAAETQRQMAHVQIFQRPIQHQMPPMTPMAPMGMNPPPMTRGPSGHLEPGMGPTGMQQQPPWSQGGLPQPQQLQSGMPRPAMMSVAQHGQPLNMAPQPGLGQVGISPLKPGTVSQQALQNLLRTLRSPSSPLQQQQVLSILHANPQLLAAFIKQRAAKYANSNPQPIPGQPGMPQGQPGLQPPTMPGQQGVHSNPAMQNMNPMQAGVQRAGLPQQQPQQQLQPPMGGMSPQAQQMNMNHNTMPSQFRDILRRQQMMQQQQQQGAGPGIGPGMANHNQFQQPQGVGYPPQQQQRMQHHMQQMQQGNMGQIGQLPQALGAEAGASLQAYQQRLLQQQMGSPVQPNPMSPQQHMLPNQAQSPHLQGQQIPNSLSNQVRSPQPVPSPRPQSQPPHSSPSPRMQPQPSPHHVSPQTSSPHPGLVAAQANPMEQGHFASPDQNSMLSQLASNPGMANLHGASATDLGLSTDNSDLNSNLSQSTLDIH

As for `CNC(=O)N1CCc2c(c(N3CCCc4cc(-c5cnn(C)c5)c(C(F)F)cc43)nn2C2CCN(C(=O)CCCNc3ccc4c(c3)C(=O)N(C3CCC(=O)NC3=O)C4=O)CC2)C1` (stereo not shown) [P-003, 3-(7-(Difluoromethyl)-6-(1-methyl-1H-pyrazol-4-yl)-3,4-dihydroquinolin-1(2H)-yl)-1-(1-(4-((2-(2,6-dioxopiperidin-3-yl)-1,3-dioxoisoindolin-5-yl)amino)butanoyl)piperidin-4-yl)-N-methyl-1,4,6,7-tetrahydro-5H-pyrazolo[4,3-c]pyridine-5-carboxamide], in the assay with LNCaP cells, the IC50 came to 35.7 nM. Besides, the inhibition at 0.01 µM on P300 was 50 to 80%.
Taken in the same sequence, the figures for `CNC(=O)N1CCc2c(c(N3CCCc4cc(-c5cnn(C)c5)c(C(F)F)cc43)nn2C2CCN(C(=O)CCCCNc3ccc4c(c3)C(=O)N(C3CCC(=O)NC3=O)C4=O)CC2)C1` (stereo not shown) [P-004, 3-(7-(difluoromethyl)-6-(1-methyl-1H-pyrazol-4-yl)-3,4-dihydroquinolin-1(2H)-yl)-1-(1-(5-((2-(2,6-dioxopiperidin-3-yl)-1,3-dioxoisoindolin-5-yl)amino)pentanoyl)piperidin-4-yl)-N-methyl-1,4,6,7-tetrahydro-5H-pyrazolo[4,3-c]pyridine-5-carboxamide] were 7.1 nM and above 80%.
For `CNC(=O)N1CCc2c(c(N3CCCc4cc(-c5cnn(C)c5)c(C(F)F)cc43)nn2C2CCN(C(=O)CCCCCNc3ccc4c(c3)C(=O)N(C3CCC(=O)NC3=O)C4=O)CC2)C1` (stereo not shown) [P-005, 3-(7-(difluoromethyl)-6-(1-methyl-1H-pyrazol-4-yl)-3,4-dihydroquinolin-1(2H)-yl)-1-(1-(6-((2-(2,6-dioxopiperidin-3-yl)-1,3-dioxoisoindolin-5-yl)amino)hexanoyl)piperidin-4-yl)-N-methyl-1,4,6,7-tetrahydro-5H-pyrazolo[4,3-c]pyridine-5-carboxamide] the same measures were 4 nM and above 80%.
Turning to `CNC(=O)N1CCc2c(c(N3CCCc4cc(-c5cnn(C)c5)c(C(F)F)cc43)nn2C2CCN(C(=O)CCCCCCNc3ccc4c(c3)C(=O)N(C3CCC(=O)NC3=O)C4=O)CC2)C1` (stereo not shown) [P-006, 3-(7-(difluoromethyl)-6-(1-methyl-1H-pyrazol-4-yl)-3,4-dihydroquinolin-1(2H)-yl)-1-(1-(7-((2-(2,6-dioxopiperidin-3-yl)-1,3-dioxoisoindolin-5-yl)amino)heptanoyl)piperidin-4-yl)-N-methyl-1,4,6,7-tetrahydro-5H-pyrazolo[4,3-c]pyridine-5-carboxamide], the IC50 in the assay on LNCaP cells was 3.2 nM. The inhibition at 0.01 µM at P300 was above 80%.
Taken in the same sequence, the figures for `CNC(=O)N1CCc2c(c(N3CCCc4cc(-c5cnn(C)c5)c(C(F)F)cc43)nn2C2CCN(C(=O)CCOCCNc3ccc4c(c3)C(=O)N(C3CCC(=O)NC3=O)C4=O)CC2)C1` (stereo not shown) [P-008, 3-(7-(Difluoromethyl)-6-(1-methyl-1H-pyrazol-4-yl)-3,4-dihydroquinolin-1(2H)-yl)-1-(1-(3-(2-((2-(2,6-dioxopiperidin-3-yl)-1,3-dioxoisoindolin-5-yl)amino)ethoxy)propanoyl)piperidin-4-yl)-N-methyl-1,4,6,7-tetrahydro-5H-pyrazolo[4,3-c]pyridine-5-carboxamide] were above 10000 nM and 20 to 50%.
For `CNC(=O)N1CCc2c(c(N3CCCc4cc(-c5cnn(C)c5)c(C(F)F)cc43)nn2C2CCN(C(=O)CCOCCOCCNc3ccc4c(c3)C(=O)N(C3CCC(=O)NC3=O)C4=O)CC2)C1` (stereo not shown) [P-009, 3-(7-(difluoromethyl)-6-(1-methyl-1H-pyrazol-4-yl)-3,4-dihydroquinolin-1(2H)-yl)-1-(1-(3-(2-(2-((2-(2,6-dioxopiperidin-3-yl)-1,3-dioxoisoindolin-5-yl)amino)ethoxy)ethoxy)propanoyl)piperidin-4-yl)-N-methyl-1,4,6,7-tetrahydro-5H-pyrazolo[4,3-c]pyridine-5-carboxamide] the same measures were 114 nM and 20 to 50%.
The compound `CNC(=O)N1CCc2c(c(N3CCCc4cc(-c5cnn(C)c5)c(C(F)F)cc43)nn2C2CCN(C(=O)CCOCCOCCOCCNc3ccc4c(c3)C(=O)N(C3CCC(=O)NC3=O)C4=O)CC2)C1` (stereo not shown) [P-010, 3-(7-(Difluoromethyl)-6-(1-methyl-1H-pyrazol-4-yl)-3,4-dihydroquinolin-1(2H)-yl)-1-(1-(3-(2-(2-(2-((2-(2,6-dioxopiperidin-3-yl)-1,3-dioxoisoindolin-5-yl)amino)ethoxy)ethoxy)ethoxy)propanoyl)piperidin-4-yl)-N-methyl-1,4,6,7-tetrahydro-5H-pyrazolo[4,3-c]pyridine-5-carboxamide] registered an IC50 with LNCaP cells of 152 nM. In addition, the inhibition at 0.01 µM at P300 fell in the range of 20 to 50%.
Regarding `CNC(=O)N1CCc2c(c(N3CCCc4cc(-c5cnn(C)c5)c(C(F)F)cc43)nn2C2CCN(C(=O)CCOCCOCCOCCOCCNc3ccc4c(c3)C(=O)N(C3CCC(=O)NC3=O)C4=O)CC2)C1` (stereo not shown) [P-011, 3-(7-(Difluoromethyl)-6-(1-methyl-1H-pyrazol-4-yl)-3,4-dihydroquinolin-1(2H)-yl)-1-(1-(1-((2-(2,6-dioxopiperidin-3-yl)-1,3-dioxoisoindolin-5-yl)amino)-3,6,9,12-tetraoxapentadecan-15-oyl)piperidin-4-yl)-N-methyl-1,4,6,7-tetrahydro-5H-pyrazolo[4,3-c]pyridine-5-carboxamide], the IC50 in the assay on LNCaP cells amounted to 163 nM. For the same compound, the inhibition at 0.01 µM at P300 was 20 to 50%.
In the assay on LNCaP cells, `CNC(=O)N1CCc2c(c(N3CCCc4cc(-c5cnn(C)c5)c(C(F)F)cc43)nn2C2CCN(C(=O)CCOCCOCCOCCOCCOCCNc3ccc4c(c3)C(=O)N(C3CCC(=O)NC3=O)C4=O)CC2)C1` (stereo not shown) [P-012, 3-(7-(Difluoromethyl)-6-(1-methyl-1H-pyrazol-4-yl)-3,4-dihydroquinolin-1(2H)-yl)-1-(1-(1-((2-(2,6-dioxopiperidin-3-yl)-1,3-dioxoisoindolin-5-yl)amino)-3,6,9,12,15-pentaoxaoctadecan-18-oyl)piperidin-4-yl)-N-methyl-1,4,6,7-tetrahydro-5H-pyrazolo[4,3-c]pyridine-5-carboxamide] returned an IC50 of 197 nM. The inhibition at 0.01 µM at P300 is below 20%.
In the assay with LNCaP cells, `CNC(=O)N1CCc2c(c(N3CCCc4cc(-c5cnn(C)c5)c(C(F)F)cc43)nn2C2CCN(C(=O)CCNc3cccc4c3C(=O)N(C3CCC(=O)NC3=O)C4=O)CC2)C1` (stereo not shown) [P-014, 3-(7-(Difluoromethyl)-6-(1-methyl-1H-pyrazol-4-yl)-3,4-dihydroquinolin-1(2H)-yl)-1-(1-(3-((2-(2,6-dioxopiperidin-3-yl)-1,3-dioxoisoindolin-4-yl)amino)propanoyl)piperidin-4-yl)-N-methyl-1,4,6,7-tetrahydro-5H-pyrazolo[4,3-c]pyridine-5-carboxamide] gave an IC50 above 10000 nM. At P300, the inhibition at 0.01 µM is below 20%.
For `CNC(=O)N1CCc2c(c(N3CCCc4cc(-c5cnn(C)c5)c(C(F)F)cc43)nn2C2CCN(C(=O)CCCNc3cccc4c3C(=O)N(C3CCC(=O)NC3=O)C4=O)CC2)C1` (stereo not shown) [P-015, 3-(7-(difluoromethyl)-6-(1-methyl-1H-pyrazol-4-yl)-3,4-dihydroquinolin-1(2H)-yl)-1-(1-(4-((2-(2,6-dioxopiperidin-3-yl)-1,3-dioxoisoindolin-4-yl)amino)butanoyl)piperidin-4-yl)-N-methyl-1,4,6,7-tetrahydro-5H-pyrazolo[4,3-c]pyridine-5-carboxamide] the same measures were 7.3 nM and above 80%.

The record behind these values is patent US20230073777A1, “CYCLIC-AMP RESPONSE ELEMENT BINDING PROTEIN (CBP) AND/OR ADENOVIRAL E1A BINDING PROTEIN OF 300 KDA (P300) DEGRADATION COMPOUNDS AND METHODS OF USE” (CULLGEN (SHANGHAI), INC., priority 2019, published 2023).
